In US5401736A, “4,5,6,7-tetrahydro-1H-imidazo[4,5-c]pyridine-6-carboxylic acid amide” (Kureha Kagaku Kogyo Kabushiki Kaisha, priority 1992, dated 1995):
Read-outs that look alike come from different tables or passages of the source.

Legend:
[1] = target: T1, angiotensin II receptor type 1 (AT1), suprarenal gland of rabbit (Oryctolagus cuniculus, UniProt P34976); assay: Receptor binding test, AT1 (tracer 3H-angiotensin II, displacer DuP753); conditions: room temperature, read-out: Binding inhibition ratio (%) of the test compounds at 1 μM, AT1
T1 construct: Receptor: suprarenal gland of rabbit; from tissue; host or cells: suprarenal gland (adrenal) of rabbit
T1 sequence (P34976 1-359): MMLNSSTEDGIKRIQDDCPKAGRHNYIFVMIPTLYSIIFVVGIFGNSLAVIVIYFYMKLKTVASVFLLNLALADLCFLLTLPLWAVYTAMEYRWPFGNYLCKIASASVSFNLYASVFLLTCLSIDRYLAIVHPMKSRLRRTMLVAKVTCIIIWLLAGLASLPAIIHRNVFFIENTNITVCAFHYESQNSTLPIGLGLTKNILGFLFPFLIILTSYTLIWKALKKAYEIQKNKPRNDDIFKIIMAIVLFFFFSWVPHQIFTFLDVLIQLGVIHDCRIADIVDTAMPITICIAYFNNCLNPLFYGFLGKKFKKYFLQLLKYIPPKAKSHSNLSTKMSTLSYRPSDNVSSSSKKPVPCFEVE
Description: Determination of total binding in the presence of each drug to be tested was made in the following way. A test drug of a predetermined concentration (0.025 ml; dissolved in dimethyl sulfoxide, then diluted two-fold with a buffer attached to the Drug Discovery System and used for assay), a tracer (0.025 ml), and a receptor (0.2 ml) were added to make a total volume of 0.25 ml. After incubation (at room temperature for 3 hours for the angiotensin II receptor type 1 (AT1) and at 37° C. for one hour for the type 2 (AT2)), the reaction mixture was subjected to suction filtration (using GF/C filter paper for AT1 and GF/B filter paper for AT2). The filter paper (tracer-receptor complex) after suction filtration was measured by a y-well counter (ARC-500, Aloka). The non-specific binding was determined by the similar operation by using a large excess of displacer. The specific binding at the predetermined concentration of the test drug was calculated by deducting the non-specific binding from the total binding. The ratio (%) at which the test drugs inhibit binding between radioactive ligand and receptor was determined for both AT1 and AT2 by using the test drugs of the predetermined concentration and a control drug. | *Receptor: suprarenal gland of rabbit Tracer: ^3 Hangiotensin II | (displacer: […])

[2] = target: T2, angiotensin II receptor type 2 (AT2), bovine cerebellar cortex (Bos taurus, UniProt G5E6F7); assay: Receptor binding test, AT2 (tracer 125I-Tyr4-angiotensin II, displacer angiotensin II (human)); conditions: 1 h, read-out: Binding inhibition ratio (%) of the test compounds at 1 μM, AT2
T2 construct: Receptor: bovine cerebellar cortex; from tissue; host or cells: bovine cerebellar cortex
T2 sequence (G5E6F7 1-362): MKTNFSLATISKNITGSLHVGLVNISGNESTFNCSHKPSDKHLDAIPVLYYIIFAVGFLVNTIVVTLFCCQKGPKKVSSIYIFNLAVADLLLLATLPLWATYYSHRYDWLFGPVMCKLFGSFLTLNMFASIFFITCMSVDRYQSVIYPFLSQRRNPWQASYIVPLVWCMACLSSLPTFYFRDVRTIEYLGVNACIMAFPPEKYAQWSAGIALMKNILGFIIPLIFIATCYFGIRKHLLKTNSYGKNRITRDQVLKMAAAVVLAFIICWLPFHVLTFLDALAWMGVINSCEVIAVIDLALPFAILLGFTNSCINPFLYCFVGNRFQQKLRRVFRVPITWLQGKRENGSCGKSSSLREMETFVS
Description: Determination of total binding in the presence of each drug to be tested was made in the following way. A test drug of a predetermined concentration (0.025 ml; dissolved in dimethyl sulfoxide, then diluted two-fold with a buffer attached to the Drug Discovery System and used for assay), a tracer (0.025 ml), and a receptor (0.2 ml) were added to make a total volume of 0.25 ml. After incubation (at room temperature for 3 hours for the angiotensin II receptor type 1 (AT1) and at 37° C. for one hour for the type 2 (AT2)), the reaction mixture was subjected to suction filtration (using GF/C filter paper for AT1 and GF/B filter paper for AT2). The filter paper (tracer-receptor complex) after suction filtration was measured by a y-well counter (ARC-500, Aloka). The non-specific binding was determined by the similar operation by using a large excess of displacer. The specific binding at the predetermined concentration of the test drug was calculated by deducting the non-specific binding from the total binding.

[3] = 1 μM, receptor: bovine cerebellar cortex, 37° C., one hour

Structure (SMILES)	inhibition at 1 µM [1] [%]	inhibition at 1 µM [2, 3] [%]	inhibition at 1 µM [2] [%]
CCCCc1nc2c(n1Cc1ccc(-c3ccccc3C(=O)O)cc1)C[C@@H](C(=O)N(C)C)N(C(=O)C(c1ccccc1)c1ccccc1)C2 [Compound I-17]	100	0	–
Cc1cc(Cn2cnc3c2CC(C(=O)O)N(C(=O)C(c2ccccc2)c2ccccc2)C3)ccc1N (centres unmarked) [PD123177, reference compound]	0	65	–
CCCCc1nc(Cl)c(CO)n1Cc1ccc(-c2ccccc2-c2nn[nH]n2)cc1 [DuP753, reference compound]	70	–	0
CCCc1nc2c(n1Cc1ccc(-c3ccccc3-c3nn[nH]n3)c(C)c1)CC(C(=O)O)N(C(=O)C(c1ccccc1)c1ccccc1)C2 (centres unmarked) [Reference compound 26, reference compound]	78	0	–
CCCCc1nc2c(n1Cc1ccc(NC(=O)c3ccccc3C(=O)O)c(C)c1)C[C@@H](C(=O)N1CCOCC1)N(C(=O)C(c1ccccc1)c1ccccc1)C2 [Compound I-30]	100	0	–
O=C(O)c1ccc(Cn2cnc3c2C[C@@H](C(=O)N2CCOCC2)N(C(=O)C(c2ccccc2)c2ccccc2)C3)cc1 [Compound I-21]	0	100	–
O=C(O)C1Cc2c(ncn2Cc2ccc(-c3ccccc3-c3nn[nH]n3)cc2)CN1C(=O)C(c1ccccc1)c1ccccc1 (centres unmarked) [Reference compound 27, reference compound]	0	76	–
CCCCc1nc2c(n1Cc1ccc(-c3ccccc3-c3nn[nH]n3)cc1)C[C@@H](C(=O)N1CCSCC1)N(C(=O)C(c1ccccc1)c1ccccc1)C2 [Compound I-32]	100	0	–
Cc1cc(Cn2cnc3c2C[C@@H](C(=O)N2CCOCC2)N(C(=O)C(c2ccccc2)c2ccccc2)C3)ccc1NC(=O)c1ccccc1C(=O)O [Compound I-7]	0	100	–
CCCCc1nc2c(n1Cc1ccc(-c3ccccc3-c3nn[nH]n3)cc1)C[C@@H](C(=O)N(CC)CC)N(C(=O)C(c1ccccc1)c1ccccc1)C2 [Compound I-40]	100	0	–
CCCCc1nc2c(n1Cc1ccc(NC(=O)c3ccccc3C(=O)O)c(C)c1)C[C@@H](C(=O)N(C)C)N(C(=O)C(c1ccccc1)c1ccccc1)C2 [Compound I-12]	100	0	–
CCCCc1nc2c(n1Cc1ccc(-c3ccccc3-c3nn[nH]n3)cc1)C[C@@H](C(=O)N1CCOCC1)N(C(=O)C(c1ccccc1)c1ccccc1)C2 [Compound I-31]	100	0	–
COC(=O)C1Cc2c(ncn2Cc2ccc(NC(=O)c3ccccc3C(=O)O)c(C)c2)CN1C(=O)C(c1ccccc1)c1ccccc1 (centres unmarked) [Reference compound 2, reference compound]	0	72	–
Cc1cc(Cn2cnc3c2CC(C(=O)O)N(C(=O)C(c2ccccc2)c2ccccc2)C3)ccc1NC(=O)c1ccccc1C(=O)O (centres unmarked) [Reference compound 1, reference compound]	0	71	–
O=C([C@@H]1Cc2c(ncn2Cc2ccc(-c3ccccc3-c3nnn[nH]3)cc2)CN1C(=O)C(c1ccccc1)c1ccccc1)N1CCOCC1 [Compound I-24, 4-[[(S)-5-diphenylacetyl-1-[(2'-(1H-tetrazol-5-yl)biphenyl-4-yl)methyl]-4,5,6,7-tetrahydro-1H-imidazo[4,5-c]pyridin-6-yl]carbonyl]morpholine]	0	100	–
CCCCc1nc2c(n1Cc1ccc(-c3ccccc3-c3nn[nH]n3)c(C)c1)C[C@@H](C(=O)N(C)C)N(C(=O)C(c1ccccc1)c1ccccc1)C2 [Compound I-19]	100	0	–
CCCc1nc2c(n1Cc1ccc(-c3ccccc3-c3nn[nH]n3)cc1)CC(C(=O)O)N(C(=O)C(c1ccccc1)c1ccccc1)C2 (centres unmarked) [Reference compound 50, reference compound]	75	0	–
Cc1cc(Cn2cnc3c2C[C@@H](C(=O)N(C)C)N(C(=O)C(c2ccccc2)c2ccccc2)C3)ccc1NC(=O)c1ccccc1C(=O)O [Compound I-2, (S)-1-(4-(2-carboxybenzoylamino)-3-methylphenyl)methyl-N,N-dimethyl-5-diphenylacetyl-4,5,6,7-tetrahydro-1H-imidazo[4,5-c]pyridine-6-carboxamide]	0	100	–
CN(C)C(=O)[C@@H]1Cc2c(ncn2Cc2ccc(NC(=O)c3ccccc3C(=O)O)cc2)CN1C(=O)C(c1ccccc1)c1ccccc1 [Compound I-1]	0	100	–
